{"source": "patent US20120322812A1", "about": "“RUTAECARPINE DERIVATIVES FOR TREATING INSOMNIA” (priority 2011, published 2012)", "system": "CYP1A2", "experiment": "MEROD assay in live Hepa1c1c7 cells preincubated with test compound (CYP1A2 induction)", "assay_type": "cell-based, mouse", "from_the_text": "FIG. 1 illustrates how caffeine is primarily metabolized to paraxanthine via CYP1A2 enzyme in a human, according to some embodiments. The MEROD (methoxyresorufin-O-demethylase) assay measures the activity of the enzyme (CYP1A2) that converts methoxyresorufin (probe substrate) to resorufin (demethylation) in the presence of NADPH. The resulting resorufin concentration can be measured using a fluorescence reader by setting the excitation and emission wavelengths at 544 and 590 nm, respectively.\nFor MEROD assay in live cells, Hepa1c1c7 cells were cultured in either 6-well or 24-well-plates. For the 24-well plate experiment, after confluent cells were incubated for approximately 20 hours with either resorufin, nitro-resorufin, chloro-resorufin, 3-MC or DMSO (in triplicates), culture media was removed and 180 μL fresh culture media containing […] methoxyresorufin was added per well. After 1 hour incubation at 37° C., 100 μL aliquot was taken from each well and the formation of resorufin was measured by fluorescence. […] After 5 hours incubation at 37° C., 100 μL aliquot was taken from each well, centrifuged at 12,000 g at RT for ˜5 min and the supernatants were placed into wells of a 96-well fluorescence plate and the formation of resorufin was measured by fluorescence."}
{"compound": "O=c1c2ccc(Cl)cc2nc2n1CCc1c-2[nH]c2ccccc12", "note": "[chloro-rutaecarpine]", "values": [{"measurement": "formation of resorufin in live cells (MEROD assay)", "setting": "Hepa1c1c7 cells incubated with 2 μM compound, compared to DMSO, 24-well and 6-well plate studies", "value": "significant difference"}, {"measurement": "formation of resorufin in live cells (MEROD assay)", "setting": "Hepa1c1c7 cells incubated with 10 μM compound", "value": "no marked difference"}]}
